Experimental data: US12263144B2, “Methods of treating IgA nephropathy with thiol-containing molecules” (Accubit LLC—Biotechnology, priority 2020, dated 2025)

Columns and labels:
[1] = tested on: rat poly-rIgA; assay: Nonreducing SDS-PAGE analysis of rat poly-rIgA after pretreatment; format: biochemical; conditions: cysteamine 0 to 10 mM; TCEP 10 mM; untreated poly-IgA >250 kDa
Procedure: Proteins in sample buffer (Bio-Rad Laboratories, Hercules, CA, USA) with or without TCEP (for reducing or nonreducing condition, respectively) were resolved by 4-12% SDS-PAGE (Bio-Rad Laboratories). IgA bands were subsequently visualized either by staining with GelCode Blue (Thermo Fisher Scientific), or by Western blotting on PVDF membrane. For Western blotting, 5% non-fat milk was used in blocking for one hour at room temperature. The membrane was then incubated with mouse anti-Histag antibody (Thermo Scientific), or HRP-conjugated goat anti-rat IgA α-chain antibody (Cat. ab97185, Abcam, UK), or goat anti-human IgA HRP antibody (Cat: 2050-05, SouthernBiotech) for detecting rat or human IgA (Fc), respectively. The membrane was developed using the Clarity™ ECL substrate (Bio-Rad Laboratories, CA, USA).
To further ascertain the mechanism-of-action of cysteamine in targeting disulfides, nonreducing SDS-PAGE analysis was performed of rat poly-rIgA (FIG. 5, part D). The samples were pretreated with 0 to 10 mM cysteamine, or 10 mM TCEP as positive control. As expected, poly-IgA appeared as >250 kDa bands on SDS-PAGE. Dose-dependent response of poly-rIgA to cysteamine was evident, with majority of the protein running at ˜64 kDa of disaggregated monomers.

[2] = tested on: glomerular human IgA1 deposition; assay: Passive mouse model of IgA deposition (human IgA1 injection), glomerular immunofluorescence and blood IgA1; format: in vivo, BALB/c mice; conditions: mice, 200 mg/kg s.c. 2 h before human IgA1 injection, n=6; buffer 2293±163
Procedure: To establish the passive rat model, 5 mg/kg.BW recombinant rat rIgA, which contained a fraction of poly-rIgA, were i.v. injected daily to six 14-weeks old male Wistar rats (Charles River Labs, USA) for 5 consecutive days. Every day, three rats in each group had received a subcutaneous dose of either 250 mg/kg cysteamine, or buffer control, two hours before the rIgA injection. Twenty-four hours after the last injection of rIgA, kidneys were collected for immunofluorescence detection of deposits with goat-anti-rat IgA antibody (Cat: STAR111, Biorad laboratory). Similarly, a passive IgA nephrophathy mouse model was established by injecting 35 mg/kg purified human IgA1 in BALB/c mice (Charles River Labs). Two hours before IgA1 injection, six mice in each experimental group had each received a pretreatment dose of either 200 mg/kg cysteamine, or PBS, via subcutaneous injection. Two and a half hours after human IgA1 injection, kidneys were harvested, and specimens were stained with FITC-conjugated anti-human IgA antibody (Cat: 2050-02, SouthernBiotech). Plasma samples were collected at 0.5 h, 1 h and 2 h after IgA1 injection of all mice.
Frozen tissues were sectioned at 4 μm for IgA detection using goat anti-rat IgA (Cat: STAR111, Bio-Rad Laboratories) at 1:100, or anti-human IgA antibody (Cat: 2050-02, […]) at 1:80 dilution. […]

SMILES: NCCS [cysteamine]
- molecular weight of protein band after pretreatment (nonreducing SDS-PAGE) [1]: ~64 kDa
- glomerular IgA1 intensity (Mean±SEM) [2]: 870±193
